Data reported in PubChem BioAssay AID248 (DTP/NCI, 2004).
Values joined by “and” are separate entries in the source; they are usually repeats but may differ in a detail not shown here. Equal values may be shown once. Toxic doses and inconclusive results are not listed.

Tested on: L1210 leukemia ip in BDF1 mice, survival T/C
Assay: NCI In Vivo Anticancer Drug Screen. Data for tumor model L1210 Leukemia (intraperitoneal) in B6D2F1 (BDF1) mice
Settings: endpoint: mean survival time, higher = longer survival
Method in brief: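 Value reflects the ratio of survival in compound-treated mice to survival in vehicle-treated controls, with both groups carrying the same transplanted tumor.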

[1] = dose: 100.0 mg/kg/injection, schedule: Q01DX009 (ip), vehicle: Klucel (hydroxypropylcellulose) (HPC)
[2] = dose: 100.0 mg/kg/injection, schedule: Q04DX003 (ip), vehicle: Klucel (hydroxypropylcellulose) (HPC)
[3] = dose: 200.0 mg/kg/injection, schedule: Q01DX009 (ip), vehicle: Klucel (hydroxypropylcellulose) (HPC)
[4] = dose: 200.0 mg/kg/injection, schedule: Q04DX003 (ip), vehicle: Klucel (hydroxypropylcellulose) (HPC)
[5] = dose: 400.0 mg/kg/injection, schedule: Q01DX009 (ip), vehicle: Klucel (hydroxypropylcellulose) (HPC)
[6] = dose: 400.0 mg/kg/injection, schedule: Q04DX003 (ip), vehicle: Klucel (hydroxypropylcellulose) (HPC)
[7] = dose: 100.0 mg/kg/injection, schedule: Q01DX001 (ip), vehicle: saline
[8] = dose: 200.0 mg/kg/injection, schedule: Q01DX001 (ip), vehicle: saline
[9] = dose: 400.0 mg/kg/injection, schedule: Q01DX001 (ip), vehicle: saline
[10] = dose: 100.0 mg/kg/injection, schedule: Q01DX001 (ip), vehicle: Klucel (hydroxypropylcellulose) (HPC)
[11] = dose: 200.0 mg/kg/injection, schedule: Q01DX001 (ip), vehicle: Klucel (hydroxypropylcellulose) (HPC)
[12] = dose: 100.0 mg/kg/injection, schedule: Q01DX009 (ip), vehicle: saline
[13] = dose: 200.0 mg/kg/injection, schedule: Q01DX009 (ip), vehicle: saline
[14] = dose: 50.0 mg/kg/injection, schedule: Q01DX009 (ip), vehicle: saline
[15] = dose: 25.0 mg/kg/injection, schedule: Q04DX003 (ip), vehicle: Klucel (hydroxypropylcellulose) (HPC)

Q: What does the source list for CC(CCc1ccccn1)C(=O)c1ccccc1 (stereo not given)?
A: T/C (dose: 222.0 mg/kg/injection, schedule: Q01DX Z (ip), vehicle: methylcellulose (MC)): 93 % of control; T/C (dose: 333.0 mg/kg/injection, schedule: Q01DX Z (ip), vehicle: methylcellulose (MC)): 98 % of control; T/C (dose: 500.0 mg/kg/injection, schedule: Q01DX Z (ip), vehicle: methylcellulose (MC)): 94 % of control

Q: What does the source list for CC(=N\N)/C(C)=N/N?
A: T/C (dose: 6.25 mg/kg/injection, schedule: Q01DX009 (ip), vehicle: saline with Tween-80): 102 % of control; T/C (dose: 12.5 mg/kg/injection, schedule: Q01DX009 (ip), vehicle: saline with Tween-80): 100 % of control; T/C (dose: 25.0 mg/kg/injection, schedule: Q01DX009 (ip), vehicle: saline with Tween-80): 107 % of control

Q: OCC(O)C(O)C(O)C(O)C1SCCS1 (stereo not given) was tested. Which T/C [1] did it give?
A: 88 % of control

Q: And the T/C [2]?
A: 98 % of control and 103 % of control and 93 % of control

Q: What about the T/C [3] of the same compound?
A: 89 % of control

Q: And the T/C [4]?
A: 103 % of control and 93 % of control

Q: What about the T/C [5] of the same compound?
A: 100 % of control

Q: What about the T/C [6] of the same compound?
A: 115 % of control and 88 % of control

Q: With C=CCN(CC=C)c1ncnc2[nH]ncc12 as the compound, how does the T/C (dose: 7.0 mg/kg/injection, schedule: Q01DX015 (ip), vehicle: carboxymethylcellulose (CMC)) read?
A: 91 % of control

Q: What about the T/C (dose: 16.0 mg/kg/injection, schedule: Q01DX015 (ip), vehicle: carboxymethylcellulose (CMC)) of the same compound?
A: 97 % of control

Q: And the T/C (dose: 32.0 mg/kg/injection, schedule: Q01DX015 (ip), vehicle: carboxymethylcellulose (CMC))?
A: 93 % of control

Q: What about the T/C (dose: 62.0 mg/kg/injection, schedule: Q01DX015 (ip), vehicle: carboxymethylcellulose (CMC)) of the same compound?
A: 106 % of control

Q: What about the T/C [7] of the same compound?
A: 109 % of control

Q: What about the T/C (dose: 125.0 mg/kg/injection, schedule: Q01DX015 (ip), vehicle: carboxymethylcellulose (CMC)) of the same compound?
A: 89 % of control

Q: What about the T/C [8] of the same compound?
A: 101 % of control

Q: What about the T/C [9] of the same compound?
A: 93 % of control

Q: How did the T/C (dose: 50.0 mg/kg/injection, schedule: Q01DX001 (ip), vehicle: Klucel (hydroxypropylcellulose) (HPC)) turn out when CCCCCc1cc(=O)[nH]c(=O)[nH]1 was run?
A: 97 % of control

Q: What about the T/C [10] of the same compound?
A: 96 % of control

Q: What about the T/C [11] of the same compound?
A: 96 % of control

Q: With C1=CC2CCC(C1)C21OCCO1 (stereo not given) as the compound, how does the T/C [12] read?
A: 92 % of control

Q: What about the T/C (dose: 100.0 mg/kg/injection, schedule: Q04DX003 (ip), vehicle: alcohol) of the same compound?
A: 108 % of control

Q: What about the T/C [13] of the same compound?
A: 96 % of control

Q: What about the T/C (dose: 200.0 mg/kg/injection, schedule: Q04DX003 (ip), vehicle: alcohol) of the same compound?
A: 108 % of control

Q: And the T/C (dose: 400.0 mg/kg/injection, schedule: Q01DX009 (ip), vehicle: saline)?
A: 94 % of control

Q: And the T/C (dose: 400.0 mg/kg/injection, schedule: Q04DX003 (ip), vehicle: alcohol)?
A: 97 % of control

Q: With COc1ccc(C)cc1NC(=O)NNS(=O)(=O)c1ccc(C)cc1 as the compound, how does the T/C (dose: 50.0 mg/kg/injection, schedule: Q01DX009 (ip), vehicle: saline with Tween-80) read?
A: 93 % of control

Q: And the T/C (dose: 100.0 mg/kg/injection, schedule: Q01DX009 (ip), vehicle: saline with Tween-80)?
A: 93 % of control

Q: And the T/C (dose: 200.0 mg/kg/injection, schedule: Q01DX009 (ip), vehicle: saline with Tween-80)?
A: 93 % of control

Q: How did the T/C [1] turn out when N#C/C(=C\c1ccc(Cl)cc1)c1cccc2ccccc12 was run?
A: 92 % of control

Q: What about the T/C [3] of the same compound?
A: 92 % of control

Q: What about the T/C [5] of the same compound?
A: 90 % of control

Q: What does the source list for Cc1ccc(C(SCC(N)C(=O)O)(c2ccccc2)c2ccccc2)cc1 (stereo not given)?
A: T/C (dose: 12.5 mg/kg/injection, schedule: Q01DX009 (ip), vehicle: other): 157 % of control; T/C (dose: 12.5 mg/kg/injection, schedule: Q01DX009 (ip), vehicle: saline): 159 % of control; T/C (dose: 25.0 mg/kg/injection, schedule: Q01DX009 (ip), vehicle: other): 157 % of control; T/C (dose: 25.0 mg/kg/injection, schedule: Q01DX009 (ip), vehicle: saline): 171 % of control; T/C (dose: 50.0 mg/kg/injection, schedule: Q01DX009 (ip), vehicle: other): 151 % of control; T/C [14]: 204 % of control

Q: For CCSCC(O)CCl (stereo not given), which T/C (dose: 37.5 mg/kg/injection, schedule: Q04DX002 (ip), vehicle: saline) is on record?
A: 103 % of control

Q: What about the T/C (dose: 37.5 mg/kg/injection, schedule: Q04DX003 (ip), vehicle: Klucel (hydroxypropylcellulose) (HPC)) of the same compound?
A: 115 % of control

Q: What about the T/C (dose: 75.0 mg/kg/injection, schedule: Q04DX002 (ip), vehicle: saline) of the same compound?
A: 107 % of control

Q: What about the T/C (dose: 75.0 mg/kg/injection, schedule: Q04DX003 (ip), vehicle: Klucel (hydroxypropylcellulose) (HPC)) of the same compound?
A: 105 % of control

Q: What about the T/C (dose: 150.0 mg/kg/injection, schedule: Q04DX002 (ip), vehicle: saline) of the same compound?
A: 100 % of control

Q: And the T/C (dose: 150.0 mg/kg/injection, schedule: Q04DX003 (ip), vehicle: Klucel (hydroxypropylcellulose) (HPC))?
A: 98 % of control

Q: For N#Cc1ccc(S(=O)(=O)Cl)cc1, which T/C [15] is on record?
A: 95 % of control

Q: And the T/C (dose: 50.0 mg/kg/injection, schedule: Q04DX003 (ip), vehicle: Klucel (hydroxypropylcellulose) (HPC))?
A: 100 % of control

Q: And the T/C [2]?
A: 93 % of control and 91 % of control

Q: Which results are given for NC(C=O)C(O)C(O)C(O)CO (stereo not given)?
A: T/C [14]: 94 % of control; T/C [7]: 104 % of control and 93 % of control; T/C [12]: 94 % of control; T/C (dose: 125.0 mg/kg/injection, schedule: Q01DX Z (ip), vehicle: carboxymethylcellulose (CMC)): 100 % of control; T/C [8]: 105 % of control and 102 % of control; T/C [13]: 94 % of control; T/C (dose: 250.0 mg/kg/injection, schedule: Q01DX Z (ip), vehicle: carboxymethylcellulose (CMC)): 94 % of control; T/C [9]: 102 % of control and 96 % of control; T/C (dose: 500.0 mg/kg/injection, schedule: Q01DX Z (ip), vehicle: carboxymethylcellulose (CMC)): 96 % of control; T/C (dose: 750.0 mg/kg/injection, schedule: Q01DX009 (ip), vehicle: saline): 100 % of control; T/C (dose: 1000.0 mg/kg/injection, schedule: Q01DX Z (ip), vehicle: carboxymethylcellulose (CMC)): 95 % of control; T/C (dose: 1500.0 mg/kg/injection, schedule: Q01DX009 (ip), vehicle: saline): 104 % of control; T/C (dose: 3000.0 mg/kg/injection, schedule: Q01DX009 (ip), vehicle: saline): 104 % of control and 107 % of control; T/C (dose: 5000.0 mg/kg/injection, schedule: Q01DX009 (ip), vehicle: saline): 98 % of control

Q: Which T/C (dose: 100.0 mg/kg/injection, schedule: Q01DX001 (ip), vehicle: carboxymethylcellulose (CMC)) does the source give for O=c1[nH]cnc2c1ncn2C1CCC(CO)C1 (stereo not given) here?
A: 100 % of control

Q: And the T/C (dose: 177.0 mg/kg/injection, schedule: Q01DX001 (ip), vehicle: carboxymethylcellulose (CMC))?
A: 98 % of control

Q: What about the T/C (dose: 200.0 mg/kg/injection, schedule: Q01DX001 (ip), vehicle: carboxymethylcellulose (CMC)) of the same compound?
A: 96 % of control

Q: And the T/C (dose: 266.0 mg/kg/injection, schedule: Q01DX001 (ip), vehicle: carboxymethylcellulose (CMC))?
A: 98 % of control

Q: What about the T/C (dose: 600.0 mg/kg/injection, schedule: Q01DX001 (ip), vehicle: carboxymethylcellulose (CMC)) of the same compound?
A: 100 % of control

Q: For NNC(=O)c1ccc(Cl)cc1Nc1ccccc1, which T/C [10] is on record?
A: 95 % of control

Q: And the T/C [1]?
A: 107 % of control

Q: What about the T/C [11] of the same compound?
A: 86 % of control

Q: What about the T/C [3] of the same compound?
A: 94 % of control

Q: What about the T/C (dose: 400.0 mg/kg/injection, schedule: Q01DX001 (ip), vehicle: Klucel (hydroxypropylcellulose) (HPC)) of the same compound?
A: 97 % of control

Q: Which T/C (dose: 12.5 mg/kg/injection, schedule: Q04DX003 (ip), vehicle: Klucel (hydroxypropylcellulose) (HPC)) does the source give for C=CCN1C2C=C(c3ccccc3)CC1CCC2 (stereo not given) here?
A: 100 % of control

Q: And the T/C [15]?
A: 96 % of control

Q: For CCN=C(NC(=S)Nc1ccc(Cl)cc1)SCC, which T/C (dose: 100.0 mg/kg/injection, schedule: Q04DX002 (ip), vehicle: saline with Tween-80) is on record?
A: 98 % of control

Q: What about the T/C (dose: 200.0 mg/kg/injection, schedule: Q04DX002 (ip), vehicle: saline with Tween-80) of the same compound?
A: 98 % of control

Q: And the T/C (dose: 400.0 mg/kg/injection, schedule: Q04DX002 (ip), vehicle: saline with Tween-80)?
A: 95 % of control

Q: CC(=O)O[C@H]1CC[C@]2(C)C3=C([C@@H](OO)C[C@H]2C1(C)C)[C@]1(C)CC[C@H]([C@H](C)CCCC(C)C)[C@@]1(C)CC3 was tested. Which T/C (dose: 100.0 mg/kg/injection, schedule: Q01DX001 (ip), vehicle: other) did it give?
A: 97 % of control

Q: And the T/C (dose: 200.0 mg/kg/injection, schedule: Q01DX001 (ip), vehicle: other)?
A: 95 % of control

Q: And the T/C (dose: 400.0 mg/kg/injection, schedule: Q01DX001 (ip), vehicle: other)?
A: 95 % of control

Q: Which T/C [2] does the source give for O=C(Nc1cc([N+](=O)[O-])ccc1F)Oc1cccc(C(F)(F)F)c1 here?
A: 89 % of control

Q: And the T/C [4]?
A: 97 % of control

Q: And the T/C [6]?
A: 95 % of control
